The target of assay [1] is T1, CDK2/Cyclin E1 (Homo sapiens, UniProt P24941). Briefly: CDK2/Cyclin E1 Caliper LabChip EZ Reader mobility shift assay. Format: biochemical. To be noted: 2.5 nM CDK2/Cyclin E1, 100 μM ATP, 1.5 μM fluorescent peptide, 30 min pre-incubation; read-out: Caliper Assay (CDK2/CCNE1): IC50. The protocol: Inhibition of CDK2/Cyclin E1 activity in the presence of compounds of the present disclosure was evaluated using a CaliperLabChip® EZ Reader mobility shift assay. In the assay, CDK2/Cyclin E1 (Eurofins, 14-475) catalyzed the phosphorylation of a fluorescently tagged peptide 5-FAM-QSPKKG-CONH2 (PerkinEliner, FL Peptide 18) which induced a difference in capillary electrophoresis mobility. The peptide substrate and product were measured, and the conversion ratio was used to determine the inhibition (as % activity and IC50 values) of CDK2/Cyclin E1. Reactions contained 50 mM HEPES pH 7.5, 10 mM MgCl2, 1 mM EDTA, 2 mM DTT, 0.01% Brij35, 0.5 mg/mL BSA, 0.1% DMSO, 2.5 nM CDK2/Cyclin E1, 100 μM ATP, and 1.5 μM fluorescent peptide substrate.
Dose titrations of inhibitors in 100% DMSO were combined with 3.25 nM CDK2/Cyclin E1 and 130 μM of ATP in reaction buffer. The mixtures were incubated for 30 minutes before the addition of fluorescent peptide substrate to initiate the kinase reaction. The final conditions were 2.5 nM CDK2/Cyclin E1, 100 μM ATP, and 1.5 μM fluorescent peptide. The reactions were stopped after 100 minutes with the addition of EDTA (400 mM final EDTA concentration). The stopped reactions were analyzed on a Caliper LabChip® EZ Reader II. The conversion ratios were normalized to yield % activity, plotted against compound concentration, and fit to a four-parameter equation to determine the IC50 for each compound.

In another assay the test system is Kuramochi cells. Kind of assay: IncuCyte cell proliferation assay. The assay is classed as cell-based. The note with it: Kuramochi cells labeled with mApple-H2B, cell count 0 to 72 hours, 20 μM top concentration; read-out: IncuCyte Kuramochi RB-WT: IC50. The gist of the method: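 Kuramochi cells expressing mApple-H2B were treated with a 10-point, ½-log dilution series (top 20 μM). Fluorescent nuclei were counted by IncuCyte imaging at 0 and 72 h. The fold change in cell count was normalized to DMSO wells and fitted to dose-response curves to give […].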

Assay [2] addresses T1, CDK2/Cyclin E1. Briefly: ADP-Glo Luminescent Kinase Assay (CDK2/E1-37C). Format: biochemical. To be noted: 0.18 nM CDK2/Cyclin E1, 100 μM ATP, 1.5 μM Histone H1, 37° C., 60 min pre-incubation; read-out: ADPGLO (CDK2/E1-37C): IC50. The gist of the method: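 Human CDK2/Cyclin E1 preincubated with inhibitor 60 min at 37 °C, then reacted 90 min at 37 °C with final 0.18 nM enzyme, 100 μM ATP, 1.5 μM Histone H1 in HEPES pH 7.5 buffer. ADP formed read by ADP-Glo luminescence; IC50 from four-parameter fit.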

SMILES strings stand for the structures. pIC50: −log10 of the molar value.

As to `C[C@@H](OCC1(CO)CC=CCC1)C(NC(=O)[C@@H]1CN(C(=O)c2cnco2)CC12CN(C(=O)C(C)(C)C1CC1)C2)C(C)(C)O` (single isomer, unassigned) [Example I-57], the pIC50 is 6.00 to 7.00 at CDK2/Cyclin E1 [1] and under 4.70 in the assay with Kuramochi cells.
The matching figures for `Cc1nc(C)c(C(=O)N2C[C@@H](C(=O)N[C@H](C(=O)N3CCC(OC(F)(F)F)CC3)[C@@H](C)OCC3(CO)CC=CCC3)C3(C2)CN(C(=O)[C@H]2CC2(C)C)C3)s1` (stereo in doubt) [Example I-51]: 7.00 to 8.00 and 5.30 to 6.30.
For `C[C@@H](OCC12CCC(CC1)OC2)[C@H](NC(=O)[C@@H]1CN(C(=O)c2cnn(Cc3ccc(C(F)(F)F)cc3)c2)CC12CN(C(=O)C1(C(F)(F)F)CC1)C2)C(=O)N1CCC(c2nnn[nH]2)CC1` [Example I-100], the pIC50 on CDK2/Cyclin E1 [2] was over 6.30; in the assay on Kuramochi cells, under 4.70.
Regarding `C[C@@H](OCC12CCC(CC1)OC2)[C@H](NC(=O)[C@@H]1CN(C(=O)c2cnn(CC3CCNCC3)c2)CC12CN(C(=O)C1(C(F)(F)F)CC1)C2)C(=O)N1CCC(c2ccccc2C(=O)O)CC1` [Example I-101], the pIC50 on CDK2/Cyclin E1 [2] was 5.30 to 6.30; in the assay on Kuramochi cells, under 4.70.
The matching figures for `C[C@@H](OCC12CCC(CC1)OC2)[C@H](NC(=O)[C@@H]1CN(C(=O)c2cnn(Cc3ccccc3C(=O)OC(C)(C)C)c2)CC12CN(C(=O)C1(C(F)(F)F)CC1)C2)C(=O)NCCC1CCN(C(=O)OC(C)(C)C)CC1` [Example I-103]: over 6.30 and 5.30 to 6.30.
The matching figures for `Cc1cc(C2CCN(C(=O)[C@@H](NC(=O)[C@@H]3CN(C(=O)c4cnn(Cc5ccc(C(F)(F)F)cc5)c4)CC34CN(C(=O)C3(C(F)(F)F)CC3)C4)[C@@H](C)OCC34CCC(CC3)OC4)CC2)cc(C(F)(F)F)c1OCC(=O)O` [Example I-104]: over 6.30 and under 4.70.
The matching figures for `C[C@@H](OCC12CCC(CC1)OC2)[C@@H](COC1CCC(c2nccs2)CC1)NC(=O)[C@@H]1CN(C(=O)c2cnn(Cc3ccc(C(F)(F)F)cc3)c2)CC12CN(C(=O)C1(C(F)(F)F)CC1)C2` (stereo partly drawn) [Example I-107, (S)—N-((2R,3R)-3-(2-oxabicyclo[2.2.2]octan-4-ylmethoxy)-1-((4-(thiazol-2-yl)cyclohexyl)oxy)butan-2-yl)-6-(1-(4-(trifluoromethyl)benzyl)-1H-pyrazole-4-carbonyl)-2-(1-(trifluoromethyl)cyclopropanecarbonyl)-2,6-diazaspiro[3.4]octane-8-carboxamide]: 5.30 to 6.30 and 4.70 to 5.30.
On to `C[C@@H](OCC12CCC(CC1)OC2)[C@H](NC(=O)[C@@H]1CN(C(=O)c2cnn(Cc3ccccc3C(=O)OC(C)(C)C)c2)CC12CN(C(=O)C1(C(F)(F)F)CC1)C2)C(=O)N1CCN(C(=O)OC(C)(C)C)CC1` [Example I-108], for which the pIC50 at CDK2/Cyclin E1 [2] was over 6.30; in the assay with Kuramochi cells, 5.30 to 6.30.
On to `C[C@@H](OCC12CCC(CC1)OC2)[C@H](NC(=O)[C@@H]1CN(C(=O)c2cnn(Cc3ccccc3C(=O)O)c2)CC12CN(C(=O)C1(C(F)(F)F)CC1)C2)C(=O)N1CCNCC1` [Example I-109], for which the pIC50 at CDK2/Cyclin E1 [2] is over 6.30; with Kuramochi cells it was under 4.70.
On to `COC(=O)CCNC(=O)[C@@H](NC(=O)[C@@H]1CN(C(=O)c2cnn(Cc3ccc(F)cc3C(F)(F)F)c2)CC12CN(C(=O)C1(C(F)(F)F)CC1)C2)[C@@H](C)OCC12CCC(CC1)OC2` [Example I-110, Methyl 3-((2S,3R)-3-((2-oxabicyclo[2.2.2]octan-4-yl)methoxy)-2-((S)-6-(1-(4-fluoro-2-(trifluoromethyl)benzyl)-1H-pyrazole-4-carbonyl)-2-(1-(trifluoromethyl)cyclopropane-1-carbonyl)-2,6-diazaspiro[3.4]octane-8-carboxamido)butanamido)propanoate], for which the pIC50 on CDK2/Cyclin E1 [2] is 5.30 to 6.30; with Kuramochi cells, under 4.70.
The matching figures for `COC(=O)CCNC(=O)[C@@H](NC(=O)[C@@H]1CN(C(=O)c2cnn(Cc3ccc(F)cc3)c2)CC12CN(C(=O)C1(C(F)(F)F)CC1)C2)[C@@H](C)OCC12CCC(CC1)OC2` [Example I-111, Methyl 3-((2S,3R)-3-((2-oxabicyclo[2.2.2]octan-4-yl)methoxy)-2-((S)-6-(1-(4-fluorobenzyl)-1H-pyrazole-4-carbonyl)-2-(1-(trifluoromethyl)cyclopropane-1-carbonyl)-2,6-diazaspiro[3.4]octane-8-carboxamido)butanamido)propanoate]: over 6.30 and under 4.70.
In the case of `C[C@@H](OCC12CCC(CC1)OC2)[C@H](NC(=O)[C@@H]1CN(C(=O)c2cnn(Cc3ccccc3C(=O)O)c2)CC12CN(C(=O)C1(C(F)(F)F)CC1)C2)C(=O)N1CCNC2(CC2)C1` [Example I-112, 2-((4-((S)-8-(((2S,3R)-3-((2-oxabicyclo[2.2.2]octan-4-yl)methoxy)-1-oxo-1-(4,7-diazaspiro[2.5]octan-7-yl)butan-2-yl)carbamoyl)-2-(1-(trifluoromethyl)cyclopropane-1-carbonyl)-2,6-diazaspiro[3.4]octane-6-carbonyl)-1H-pyrazol-1-yl)methyl)benzoic acid], the values for the pIC50 at CDK2/Cyclin E1 [2] and with Kuramochi cells were over 6.30 and under 4.70, respectively.
The matching figures for `C[C@@H](OCC12CCC(CC1)OC2)[C@@H](COC1CCOCC1)NC(=O)[C@@H]1CN(C(=O)c2cncs2)CC12CN(C(=O)C1(C(F)(F)F)CC1)C2` [Example I-113, (8S)—N-[(2R,3R)-3-{2-oxabicyclo[2.2.2]octan-4-ylmethoxy}-1-(oxan-4-yloxy)butan-2-yl]-6-(1,3-thiazole-5-carbonyl)-2-[1-(trifluoromethyl)cyclopropanecarbonyl]-2,6-diazaspiro[3.4]octane-8-carboxamide]: 5.30 to 6.30 and under 4.70.
The matching figures for `COC(=O)[C@@H]1CN(C(=O)[C@@H](NC(=O)[C@@H]2CN(C(=O)c3cnn(Cc4ccc(C#N)cc4)c3)CC23CN(C(=O)C2(C(F)(F)F)CC2)C3)[C@@H](C)OCC23CCC(CC2)OC3)CCN1C(=O)OC(C)(C)C` [Example I-114]: over 6.30 and 4.70 to 5.30.
Consider `CCCN1CCC2(CC1)CCN(C(=O)C(NC(=O)C1CN(C(=O)c3cnn(Cc4ccccc4C(=O)O)c3)CC13CN(C(=O)C1(C(F)(F)F)CC1)C3)C(C)OCC13CCC(CC1)OC3)CC2` (stereo not drawn) [Example I-115], for which the pIC50 on CDK2/Cyclin E1 [2] was over 6.30; in the assay with Kuramochi cells, under 4.70.
The matching figures for `C[C@@H](OCC1CCOCC1)[C@H](NC(=O)[C@@H]1CN(C(=O)c2cnn(Cc3ccc(C(F)(F)F)cc3)c2)CC12CN(C(=O)C1(C(F)(F)F)CC1)C2)C(=O)N1CCC(c2ccc(C(=O)O)cc2)CC1` [I-64 1st, 4-(1-(O-((tetrahydro-2H-pyran-4-yl)methyl)-N—((S)-6-(1-(4-(trifluoromethyl)benzyl)-1H-pyrazole-4-carbonyl)-2-(1-(trifluoromethyl)cyclopropane-1-carbonyl)-2,6-diazaspiro[3.4]octane-8-carbonyl)-L-threonyl)piperidin-4-yl)benzoic acid]: over 6.30 and under 4.70.
The matching figures for `C[C@@H](OCC12CCC(CC1)OC2)[C@H](NC(=O)[C@@H]1CN(C(=O)c2cnc(O)cn2)CC12CN(C(=O)C1(C(F)(F)F)CC1)C2)C(=O)N1CCC(c2ccc(C(=O)O)c(C(F)(F)F)c2)CC1` [I-89 1st, 4-(1-(O-((2-oxabicyclo[2.2.2]octan-4-yl)methyl)-N—((S)-6-(5-hydroxypyrazine-2-carbonyl)-2-(1-(trifluoromethyl)cyclopropane-1-carbonyl)-2,6-diazaspiro[3.4]octane-8-carbonyl)-L-threonyl)piperidin-4-yl)-2-(trifluoromethyl)benzoic acid]: under 5.00 and under 4.70.
Consider `C[C@@H](OCC12CCC(CC1)OC2)[C@H](NC(=O)[C@@H]1CN(C(=O)c2cnc(O)cn2)CC12CN(C(=O)C1(C(F)(F)F)CC1)C2)C(=O)N1CCC(c2ccc(C(=O)O)c(C(F)(F)F)c2)CC1` [I-89 3rd, 4-(1-(O-((2-oxabicyclo[2.2.2]octan-4-yl)methyl)-N-(6-(5-hydroxypyrazine-2-carbonyl)-2-(1-(trifluoromethyl)cyclopropane-1-carbonyl)-2,6-diazaspiro[3.4]octane-8-carbonyl)-L-threonyl)piperidin-4-yl)-2-(trifluoromethyl)benzoic acid], for which the pIC50 is over 6.30 at CDK2/Cyclin E1 [2] and under 4.70 with Kuramochi cells.
